# “Also recorded” adds a separate entry of the source.
# Experiments:
# [1] = tested on: Saccharomyces cerevisiae strain BY4741; experiment: Halo test of H2O2 tolerance of OSIP-overexpressing yeast; format: cell-based; settings: 15 μL of 240 mM H2O2, galactose vs glucose agar, 48 h at 30° C.; versus negative controls
# Experimental: Resistance of the selected yeast transformants and the two positive control transformants against oxidative stress induced by H2O2 was additionally assayed in a halo test, by spotting 15 μL of 240 mM H2O2 on SC-ura agar, containing either glucose or galactose, and inoculated with 1/200 of overnight yeast culture as described previously (23). After 48 h of incubation at 30° C., diameters of the halos were measured.
# The halo-test comprises a predefined but continuous concentration gradient of H2O2, applied to inoculated agar plates. Upon incubation, circles (halos) of growth inhibition are visible. By comparing the diameter of the halos of plates with yeast grown on glucose (not allowing for expression of the OSIP) and galactose (inducing overexpression of the OSIP) the effect of the OSIP on oxidative stress tolerance was quantified.
# [2] = tested on: peroxide-induced ROS in yeast; experiment: ROS accumulation assay (H2DCFDA) in peroxide-treated yeast with exogenous OSIP; format: cell-based; settings: 500 μM peptide, compared to mock treatment
# Experimental: (§1) ROS, after H2O2 treatment in the absence or presence of 500 μM OSIP, were determined using 2,7-dichlorodihydrofluorescein diacetate (H2DCFDA) staining as described previously (24). Survival of WT yeast in PBS following H2O2 treatment in the absence or presence of 500 μM OSIP was assessed as described (25).
# (§2) The effect of OSIP108 on endogenous ROS levels induced by peroxide in yeast were evaluated. Peroxide-induced ROS in yeast in the absence and presence of OSIP108 were measured using 2,7-dichlorodihydrofluorescein diacetate (H2DCFDA) (FIG. 3A). […] Moreover, we found the survival of peroxide-treated yeast cells (5 mM) to increase 27-fold upon incubation with 500 μM OSIP108 (FIG. 3B).
# WT yeast = experiment: Survival assay of peroxide-treated WT yeast with exogenous OSIP; format: cell-based; settings: for effect on survival of yeast cells after treatment with peroxide (in words): exogenous addition of the peptides
# Experimental: as §1, §2
# yeast BY4741 = experiment: Yeast growth inhibition by apoptosis-inducing compounds (OD600) with or without OSIP108; format: cell-based, Saccharomyces cerevisiae
# Experimental: Yeast growth was monitored upon treatment with different apoptosis-inducing compounds in the presence (black bars) or absence (white bars) of 200 μM OSIP108. Percentage growth was calculated as the ratio of the OD600 of the treated culture over an unstressed yeast culture after 10 h (A) or 48 h (B) of incubation.
# In this respect, in parallel with mitochondrial copper toxicity, the use of the other mitochondrial toxins, in casu valproic acid, tunicamycin, doxycyclin and cisplatin, expand the range of causes of mitochondrial dysfunction and help find a broader basis for compounds rescuing mitochondrial dysfunction. Optical density (OD600) of yeast BY4741 was monitored upon treatment with different apoptosis-inducing compounds in the presence or absence of 200 μM OSIP108. OSIP108 and apoptosis-inducers were added simultaneously to the yeast cells. Percentage growth was calculated as the ratio of the OD600 of the treated culture over an unstressed yeast culture after 10 h or 48 h of incubation. […] Also, OSIP108 but not OSIP(C3A) can rescue copper- and cisplatin-induced growth inhibition of yeast
# Col-0 A. thaliana plants = experiment: Paraquat lesion diameter on A. thaliana leaves infiltrated with OSIP108; format: in vivo, Arabidopsis thaliana; settings: three days after paraquat (5 μl, 100 μM); leaf infiltrated with 100 μM OSIP108 24 h before; control 4.45±1.37 mm
# Experimental: At least twelve soil grown, 4 week old Col-0 A. thaliana plants, were used in which one leaf of each plant was syringe-infiltrated with 100 μM OSIP108 dissolved in 1% dimethyl sulphoxide (DMSO). At least 12 control plants were mock treated with 1% DMSO only. After 24 h incubation in the growth chamber, the plants were inoculated with a drop of 5 μl paraquat (100 μM). The lesion diameters caused by the paraquat treatment were measured and compared 2 and 3 days after the treatment.
# [3] = tested on: human hepatoma cell line HepG2; experiment: HepG2 cell viability (MTT) in presence of copper or cisplatin; format: cell-based
# Experimental: The mean and SE of three experiments is shown. No: viability of cells without addition of peptide; OSIP: OSIP108 was added simultaneously added to cells together with Cu; OSIP pre, cells were preincubated with OSIP108 for 12 h prior to addition of Cu.
# The human hepatoma cell line HepG2 which naturally expresses hATP7B was incubated with 100 μM of peptide OSIP108. The viability of cells was determined after 48 h exposure to toxic copper concentrations of 0.75 mM by MTT assay. The viability was calculated relative to cells that receive no copper (100%).
# yeast Δccc2 mutant [4] = experiment: Copper-induced growth inhibition of yeast Δccc2 mutant overexpressing the OSIP108 gene; format: cell-based; settings: overexpression of the gene encoding OSIP108
# From the text: Copper ions are known to induce apoptosis of hepatocytes, one of the underlying mechanisms of copper-induced toxicity in Wilson's Disease (WD). WD is caused by mutations in the ATPase ATP7b.
# yeast Δccc2 mutant [5] = experiment: Exogenous OSIP108 on yeast Δccc2 mutant at lethal copper dose (MTT viability dye halo, ROS); format: cell-based; settings: exogenous addition
# Experimental: This was tested by spotting 5 μL of 10 mM OSIP108 onto agar plates containing a yeast Δccc2 mutant, 500 μM CuSO4 and a viability dye based on MTT. Plates were incubated for 24 h and placed at 4° C. for 2 days. Blue halos were indicative of surviving yeast cells.
# [6] = tested on: CHO cell lines expressing ATP7b; experiment: Viability (MTT) of CHO cells expressing ATP7b under toxic copper; format: cell-based; settings: 100 μM OSIP108, 0.75 mM copper, 48 h
# Experimental: (§3) No: viability of cells without addition of peptide; OSIP: OSIP108 was added simultaneously added to cells together with Cu; and OSIP pre: cells were preincubated with the peptide for 12 h prior to addition of Cu.
# (§4) CHO cell lines expressing either ATP7b or ATP7b mutant H1069Q (a mutation frequently found in patients having Wilson's Disease) were incubated with OSIP108 (100 μM). The viability of cells was determined after 48 h exposure to toxic copper concentrations of 0.75 mM by MTT assay and calculated relative to cells that receive no copper (100%).
# [7] = tested on: CHO cell lines expressing ATP7b mutant H1069Q; experiment: Viability (MTT) of CHO cells expressing ATP7b mutant H1069Q under toxic copper; format: cell-based; settings: 100 μM OSIP108, 0.75 mM copper, 48 h
# Experimental: as §3, §4
Sequence,halo test: average difference in halo diameter / tolerance to H2O2 [1],peroxide-induced endogenous ROS (DCF fluorescence intensity) [2],effect on survival of yeast cells after treatment with peroxide (in words) (WT yeast),"increase of survival of peroxide-treated yeast cells (WT yeast; 5 mM peroxide, 500 μM OSIP108)",rescue of copper- and cisplatin-induced growth inhibition of yeast (yeast BY4741),"yeast growth in presence of cisplatin (yeast BY4741; 200 uM OSIP108, 250 and 125 μM cisplatin, compared to control treatment)","rescue of yeast growth inhibition by other apoptosis-inducers (yeast BY4741; 200 μM OSIP108, apoptosis-inducers other than cisplatin)",average lesion diameter (Col-0 A. thaliana plants),"copper resistance of HepG2 (viability) ([3]; FIG. 5, 100 μM OSIP108, 0.75 mM copper, 48 h, MTT)",survival of HepG2 cells in the presence of copper or cisplatin ([3]; pre-incubation with peptide),copper-induced growth inhibition of Δccc2 mutant (yeast Δccc2 mutant [4]),copper-induced accumulation of reactive oxygen species (ROS) in Δccc2 mutant (yeast Δccc2 mutant [5]),viability of the Δccc2 yeast mutant (yeast Δccc2 mutant [5]; in presence of copper),"survival of Δccc2 yeast mutant at lethal copper dose (yeast Δccc2 mutant [5]; 5 μL of 10 mM OSIP108 spotted, 500 μM CuSO4)",copper resistance / viability of CHO cells expressing ATP7b [6],copper resistance / viability of CHO cells expressing ATP7b mutant H1069Q [7]
MIIINNDNYLLLFYNNN (listed as Arabidopsis thaliana) [SIP14—1],significant enhanced tolerance,decrease in the amount of endogenous ROS,less effect than SIP108,,,,,,,,,,,,,
MIIIYYCFIIIIN (listed as Arabidopsis thaliana) [SIP14—2],significant enhanced tolerance,decrease in the amount of endogenous ROS,less effect than SIP108,,,,,,,,,,,,,
MLCVLQGLRE (listed as Arabidopsis thaliana) [OSIP108],significantly lower,significantly lower,,27 fold,can rescue,significant increase in growth,fails to rescue,2.18±1.60 mm,significantly enhances copper resistance,increased survival,could alleviate copper-induced growth inhibition,reduced,increased viability,induces survival,enhanced the copper resistance; also recorded: significantly enhances copper resistance,enhanced the copper resistance; also recorded: significantly enhances copper resistance
MLMYRMRSGAN (listed as Arabidopsis thaliana) [SIP11],significant enhanced tolerance,decrease in the amount of endogenous ROS,less effect than SIP108,,,,,,,,,,,,,

# Reference: US20130326728A1, “AGENTS FOR INCREASED RESISTANCE AGAINST OXIDATIVE STRESS CONDITIONS” (KATHOLIEKE UNIVERSITEIT LEUVEN, priority 2010, published 2013)
